Measured values as given in PubChem BioAssay AID2060494 (Molecular Pharmacology Branch, DTP, NCI, 2025).

System: 435261-313-R-J1-PDC complex spheroid viability
Experiment: Anticancer human tumor 435261-313-R-J1-PDC patient-derived colon adenocarcinoma cell line growth inhibition [GQUAD]
Settings: for IC50: curve of first compound; for viability, T/C: stronger effect = lower value
Method in brief: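 Viability of tumor cells grown as complex spheroids with endothelial and stromal cells, exposed to drug combinations. Top concentration at or near clinical Cmax (else 10 microM), diluted in half-log increments.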

[1] = second compound 0.0316 µM, first compound 0.0316 µM
[2] = second compound 0.0316 µM, first compound 0.316 µM
[3] = second compound 0.1 µM, first compound 0.0316 µM
[4] = second compound 0.1 µM, first compound 0.316 µM
[5] = second compound 0.316 µM, first compound 0.0316 µM
[6] = second compound 0.316 µM, first compound 0.316 µM
[7] = second compound 1 µM, first compound 0.0316 µM
[8] = second compound 1 µM, first compound 0.316 µM
[9] = second compound 3.16 µM, first compound 0.0316 µM
[10] = second compound 3.16 µM, first compound 0.316 µM
[11] = second compound 10 µM, first compound 0.0316 µM
[12] = second compound 10 µM, first compound 0.316 µM
[13] = second compound 0.0316 µM, first compound 0.1 µM
[14] = second compound 0.0316 µM, first compound 1 µM
[15] = second compound 0.0316 µM, first compound 3.16 µM
[16] = second compound 0.0316 µM, first compound 10 µM
[17] = second compound 0.1 µM, first compound 0.1 µM
[18] = second compound 0.1 µM, first compound 1 µM
[19] = second compound 0.1 µM, first compound 3.16 µM
[20] = second compound 0.1 µM, first compound 10 µM
[21] = second compound 0.316 µM, first compound 0.1 µM
[22] = second compound 0.316 µM, first compound 1 µM
[23] = second compound 0.316 µM, first compound 3.16 µM
[24] = second compound 0.316 µM, first compound 10 µM
[25] = second compound 1 µM, first compound 0.1 µM
[26] = second compound 1 µM, first compound 1 µM
[27] = second compound 1 µM, first compound 3.16 µM
[28] = second compound 1 µM, first compound 10 µM
[29] = second compound 3.16 µM, first compound 0.1 µM
[30] = second compound 3.16 µM, first compound 1 µM
[31] = second compound 3.16 µM, first compound 3.16 µM
[32] = second compound 3.16 µM, first compound 10 µM
[33] = second compound 10 µM, first compound 0.1 µM
[34] = second compound 10 µM, first compound 1 µM
[35] = second compound 10 µM, first compound 3.16 µM
[36] = second compound 10 µM, first compound 10 µM
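Also: spheroids exposed to the agents for seven days before readout.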
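For viability, T/C in this document: percent of vehicle control viability with DMSO wells as 100%.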

`Cc1[nH]c2ccccc2c1CCNCc1ccc(/C=C/C(=O)NO)cc1` + Cc1[nH]c2ccc(F)cc2c1-c1nc2c3cccnc3c3ncccc3c2[nH]1 showed an IC50 (second compound 0.0316 µM) of 97.9 nM, an IC50 (second compound 0.1 µM) of 105 nM and an IC50 (second compound 0.316 µM) of 77.9 nM. The IC50 (second compound 1 µM) was 106 nM, the IC50 (second compound 3.16 µM) was under 0.999 nM and the IC50 (second compound 10 µM) was under 0.999 nM. It also gave a viability, T/C (second compound 0.0316 µM, first compound 0.000999 µM) of 86%, a viability, T/C (second compound 0.0316 µM, first compound 0.00316 µM) of 70.3% and a viability, T/C (second compound 0.0316 µM, first compound 0.00999 µM) of 77.2%. It also gave a viability, T/C [1] of 98.1%, a viability, T/C (second compound 0.0316 µM, first compound 0.0999 µM) of 49.4% and a viability, T/C [2] of 4.41%. For the same compound, the viability, T/C (second compound 0.1 µM, first compound 0.000999 µM) was 91.7%, the viability, T/C (second compound 0.1 µM, first compound 0.00316 µM) was 65.4% and the viability, T/C (second compound 0.1 µM, first compound 0.00999 µM) was 96.8%. It also gave a viability, T/C [3] of 66.1%, a viability, T/C (second compound 0.1 µM, first compound 0.0999 µM) of 53.1% and a viability, T/C [4] of 11.9%. For the same compound, the viability, T/C (second compound 0.316 µM, first compound 0.000999 µM) was 64.1%, the viability, T/C (second compound 0.316 µM, first compound 0.00316 µM) was 81.8% and the viability, T/C (second compound 0.316 µM, first compound 0.00999 µM) was 61.8%. It also gave a viability, T/C [5] of 68.1%, a viability, T/C (second compound 0.316 µM, first compound 0.0999 µM) of 45.2% and a viability, T/C [6] of 9.8%. It also gave a viability, T/C (second compound 1 µM, first compound 0.000999 µM) of 46.7%, a viability, T/C (second compound 1 µM, first compound 0.00316 µM) of 71.7% and a viability, T/C (second compound 1 µM, first compound 0.00999 µM) of 49.9%. For the same compound, the viability, T/C [7] was 58.6%, the viability, T/C (second compound 1 µM, first compound 0.0999 µM) was 52.1% and the viability, T/C [8] was 7.21%. The viability, T/C (second compound 3.16 µM, first compound 0.000999 µM) was 41.2%, the viability, T/C (second compound 3.16 µM, first compound 0.00316 µM) was 39.5% and the viability, T/C (second compound 3.16 µM, first compound 0.00999 µM) was 24.2%. It also gave a viability, T/C [9] of 33.8%, a viability, T/C (second compound 3.16 µM, first compound 0.0999 µM) of 26% and a viability, T/C [10] of 0.48%. For the same compound, the viability, T/C (second compound 10 µM, first compound 0.000999 µM) was 29.5%, the viability, T/C (second compound 10 µM, first compound 0.00316 µM) was 28.2% and the viability, T/C (second compound 10 µM, first compound 0.00999 µM) was 28.1%. The viability, T/C [11] was 33.3%, the viability, T/C (second compound 10 µM, first compound 0.0999 µM) was 27.8% and the viability, T/C [12] was 0.79%.

For `COc1cc(C2c3cc4c(cc3C(OC3OC5COC(C)OC5C(O)C3O)C3COC(=O)C23)OCO4)cc(OC)c1O` (stereo unspecified) + CN(C)c1ccc(Nc2c3ccc(NC(=O)CCN4CCCC4)cc3nc3cc(NC(=O)CCN4CCCC4)ccc23)cc1, the IC50 (second compound 0.0316 µM) was over 10000 nM, the IC50 (second compound 0.1 µM) was over 10000 nM and the IC50 (second compound 0.316 µM) was over 10000 nM. It also gave an IC50 (second compound 1 µM) of over 10000 nM, an IC50 (second compound 3.16 µM) of over 10000 nM and an IC50 (second compound 10 µM) of 70.4 nM. The viability, T/C [1] was 93.5%, the viability, T/C [13] was 117% and the viability, T/C [2] was 77.8%. It also gave a viability, T/C [14] of 74.4%, a viability, T/C [15] of 75.9% and a viability, T/C [16] of 61.2%. It also gave a viability, T/C [3] of 81.8%, a viability, T/C [17] of 87.3% and a viability, T/C [4] of 74.8%. The viability, T/C [18] was 80.7%, the viability, T/C [19] was 82.1% and the viability, T/C [20] was 74.1%. For the same compound, the viability, T/C [5] was 100%, the viability, T/C [21] was 95.2% and the viability, T/C [6] was 65.1%. For the same compound, the viability, T/C [22] was 71%, the viability, T/C [23] was 91.6% and the viability, T/C [24] was 74.4%. It also gave a viability, T/C [7] of 78.9%, a viability, T/C [25] of 91.4% and a viability, T/C [8] of 74.3%. The viability, T/C [26] was 76.4%, the viability, T/C [27] was 71.1% and the viability, T/C [28] was 57.1%. For the same compound, the viability, T/C [9] was 62.6%, the viability, T/C [29] was 69.2% and the viability, T/C [10] was 65.5%. For the same compound, the viability, T/C [30] was 55.2%, the viability, T/C [31] was 62.4% and the viability, T/C [32] was 45.7%. It also gave a viability, T/C [11] of 63%, a viability, T/C [33] of 42.4% and a viability, T/C [12] of 37.9%. It also gave a viability, T/C [34] of 29%, a viability, T/C [35] of 27.1% and a viability, T/C [36] of 26.4%.

`C#Cc1c(F)ccc2cc(O)cc(-c3ncc4c(N5CC6CCC(C5)N6)nc(OCC56CCCN5CC(F)C6)nc4c3F)c12` (stereo unspecified) + CN(C)c1ccc(Nc2c3ccc(NC(=O)CCN4CCCC4)cc3nc3cc(NC(=O)CCN4CCCC4)ccc23)cc1 showed an IC50 (second compound 0.0316 µM) of over 10000 nM, an IC50 (second compound 0.1 µM) of over 10000 nM and an IC50 (second compound 0.316 µM) of over 10000 nM. It also gave an IC50 (second compound 1 µM) of over 10000 nM, an IC50 (second compound 3.16 µM) of 3580 nM and an IC50 (second compound 10 µM) of 199 nM. For the same compound, the viability, T/C [1] was 77%, the viability, T/C [13] was 118% and the viability, T/C [2] was 114%. It also gave a viability, T/C [14] of 58.1%, a viability, T/C [15] of 64.9% and a viability, T/C [16] of 48.8%. For the same compound, the viability, T/C [3] was 123%, the viability, T/C [17] was 110% and the viability, T/C [4] was 94.6%. It also gave a viability, T/C [18] of 99.6%, a viability, T/C [19] of 66.1% and a viability, T/C [20] of 60.5%. The viability, T/C [5] was 89.3%, the viability, T/C [21] was 130% and the viability, T/C [6] was 82%. It also gave a viability, T/C [22] of 78%, a viability, T/C [23] of 50.7% and a viability, T/C [24] of 64%. It also gave a viability, T/C [7] of 82.5%, a viability, T/C [25] of 87.9% and a viability, T/C [8] of 103%. The viability, T/C [26] was 64.5%, the viability, T/C [27] was 62.4% and the viability, T/C [28] was 54.7%. The viability, T/C [9] was 67.8%, the viability, T/C [29] was 65.8% and the viability, T/C [10] was 42.2%. It also gave a viability, T/C [30] of 42.5%, a viability, T/C [31] of 56.7% and a viability, T/C [32] of 9.31%. It also gave a viability, T/C [11] of 44.2%, a viability, T/C [33] of 73.5% and a viability, T/C [12] of 42.1%. It also gave a viability, T/C [34] of 23.6%, a viability, T/C [35] of 19.8% and a viability, T/C [36] of 0.2%.
